What was measured:
[1] = Stability in human liver microsomes (NADPH-dependent); type: in vitro ADME
Description: Liver microsomes are an in vitro model for in vivo metabolism and elimination of a drug by the liver (and gut) cytochrome P450 system. A compound's stability in liver microsomes in vitro is predictive of its metabolism and elimination in vivo. We examined the stability of SX-682 in liver microsomes together with several other cogeners to quantify the microsomal stability of SX-682 and identify potential structure-activity relationships (SAR) predictive of stability or instability (see Figure 5).
The compounds were incubated in duplicate with human liver microsomes at 37°C. The reaction contained microsomal protein in 100 mM potassium phosphate, 2 mM NADPH, 3 mM MgCl2, pH 7.4. A control was run for each compound omitting NADPH to detect NADPH-independent degradation. An aliquot was removed from each experimental and control reaction at 0, 10, 20, 30, and 60 minutes and mixed with an equal volume of ice-cold Stop Solution (0.3% acetic acid in acetonitrile containing haloperidol, diclofenac, or other internal standard). Stopped reactions were incubated for at least ten minutes at -20°C, and an additional volume of water was added. The samples were centrifuged to remove precipitated protein, and the supernatants were analyzed by LCMS/MS to quantitate the remaining compound. Data were converted to percent remaining by dividing by the time zero concentration value. Data were fit to a first-order decay model to determine half-life. Intrinsic clearance was calculated from the half-life and the protein concentrations: CLint = ln(2)/(t½ [microsomal protein]).

[2] = Stability in human plasma; type: in vitro ADME
Experimental: The in vitro stability of SX-682 and the cogeners of Metabolic Stability Example 1 (Figure 5) were further studied in human plasma. The reactions were initiated by the addition of 5 µL of a 500 µM DMSO stock solution to 495 µL of preheated plasma solution to yield a final concentration of 5 µM. The assays were performed in a heat block at 37°C and conducted in duplicate. Samples (50 µL) were taken at 0, 30, 60, 120, 240 min and added to 150 µL acetonitrile in order to deproteinize the plasma. The samples were subjected to vortex mixing for 1 min and then centrifugation for 15 min at 14,000 rpm. The clear supernatants were analyzed by LC-MS.
The in vitro plasma half life (t½) was calculated using the expression t½ = ln(2)/b, where b is the slope found in the linear fit of the natural logarithm of the fraction remaining of the parent compound vs. incubation time.

neutrophils [3] = assay: Murine air-pouch model of inflammation; type: in vivo; conditions: depending on the dose given
neutrophils [4] = assay: Ozone rat model of pulmonary inflammation (neutrophil influx into BALF); type: in vivo, Sprague-Dawley rats; conditions: for influx of neutrophils into the lungs (BALF) as compared to control rats treated with vehicle only: 1 mg/kg intravenously once at t = 0, 1 ppm ozone for 4 hours, BALF at t = 24 hours, n = 4 per cohort
Experimental: SX-682 was assayed in an in vivo rat model of pulmonary inflammation. Activity in this model of pulmonary inflammation provides evidence that supports the use of SX-682 in the treatment of a number of pulmonary inflammatory diseases, including chronic obstructive pulmonary disease (COPD) and bronchopulmonary dysplasia (BPD). In this experiment, Sprague-Dawley rats (n = 4 per cohort) were dosed intravenously only once at t = 0 with either vehicle control (dimethylformamide/PEG400/saline, 40:40:20), positive inhibitor control (SX-576, 1 mg/kg) or the test compound (SX-682, 1 mg/kg). The rats were then placed in air (negative exposure group; vehicle control only) or 1 ppm ozone (positive exposure group; vehicle control, positive inhibitor control SX-576, and test compound SX-682) for 4 hours. The rats were then sacrificed at t = 24 hours, and the bronchoalveolar lavage fluid (BALF) was collected. The cells were spun down, stained with Wright-Giemsa and counted. In the negative exposure group, no neutrophils were observed when stained. In the ozone exposed rats treated with vehicle however, there was a brisk influx of neutrophils of approximately 14,000 per mL of BALF (see Figure 4).

CXCR1 [5] = target: T1, CXCR1 (Homo sapiens, UniProt P25024); assay: Inhibition of CXCL8-mediated intracellular calcium release, RBL cells stably transfected with CXCR1; type: cell-based; conditions: CXCL8 25 nM, mean ± SE, n = 4
T1 construct: expressed in transfected cells; host or cells: RBL cells (stably transfected)
T1 sequence (P25024 1-350): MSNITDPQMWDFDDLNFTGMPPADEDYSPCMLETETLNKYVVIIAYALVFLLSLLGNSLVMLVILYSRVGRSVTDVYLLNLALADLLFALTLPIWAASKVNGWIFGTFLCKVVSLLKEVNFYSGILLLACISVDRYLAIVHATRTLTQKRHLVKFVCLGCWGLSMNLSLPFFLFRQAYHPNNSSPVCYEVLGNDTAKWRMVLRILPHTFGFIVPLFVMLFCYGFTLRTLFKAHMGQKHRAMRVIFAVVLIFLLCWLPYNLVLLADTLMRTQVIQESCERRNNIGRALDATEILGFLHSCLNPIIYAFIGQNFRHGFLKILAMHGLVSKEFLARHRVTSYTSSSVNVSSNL
Experimental: (§1) Briefly, cells (either isolated human neutrophils or RBL cells stably transfected with either CXCR1 or CXCR2) were suspended in HBSS^- (without Ca^2+ and Mg^2+) containing 10 mM HEPES and FLIPR Calcium 3 dye (3.1 x 10^7 cells in total volume 1.7 mL). Cells were aliquoted (200 µL of the cell suspension per tube, 8 tubes total) and 2 µL of the designated compound (with appropriate dilutions) were added to each of 6 tubes. As controls, 2 µL of DMSO (1% final concentration) were added to 2 other tubes. Cells were incubated for 30 min at 37 °C. After dye loading, tubes were centrifuged at 6,000 rpm for 1 min, supernatant was removed and the cell pellet was re-suspended in 200 µL of HBSS^+ (with Ca^2+ and Mg^2+) containing 10 mM HEPES. […] The cell suspension was aliquoted into a 96-well Reading Plate (Coming) in a volume of 90 µL (10^5 cells/well). […] After 15 sec of reading the basal level of fluorescence by FlexStation II, 10 µL of CXCL8 or HBSS^-were automatically transferred from the Compound Plate into the Reading Plate (final concentration of CXCL8 was 25 nM). Changes in fluorescence were monitored (λex = 485 nm, λem = 525 nm) every 5 s for 240 to 500 s at room temperature.
(§2) The maximum change in fluorescence, expressed in arbitrary units over baseline (Max-Min), was used to determine the CXCL8 response. […]

CXCR2 [6] = target: T2, CXCR2 (Homo sapiens, UniProt P25025); assay: Inhibition of CXCL8-mediated intracellular calcium release, RBL cells stably transfected with CXCR2; type: cell-based; conditions: CXCL8 25 nM, mean ± SE, n = 4
T2 construct: expressed in transfected cells; host or cells: RBL cells (stably transfected)
T2 sequence (P25025 1-360): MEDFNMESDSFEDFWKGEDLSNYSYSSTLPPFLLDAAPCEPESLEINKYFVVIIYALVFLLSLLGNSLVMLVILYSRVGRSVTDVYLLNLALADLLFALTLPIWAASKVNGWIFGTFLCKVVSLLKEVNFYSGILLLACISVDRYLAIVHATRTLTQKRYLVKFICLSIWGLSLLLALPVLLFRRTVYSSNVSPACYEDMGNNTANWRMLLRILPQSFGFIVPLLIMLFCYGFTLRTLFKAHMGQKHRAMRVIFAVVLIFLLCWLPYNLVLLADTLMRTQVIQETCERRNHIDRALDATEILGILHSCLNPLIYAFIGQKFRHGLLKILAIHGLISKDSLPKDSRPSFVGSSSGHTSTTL
Experimental: as §1, §2

[7] = system: isolated human neutrophils; assay: Inhibition of CXCL8-mediated intracellular calcium release, isolated human neutrophils; type: cell-based; conditions: Neutrophil; human neutrophils (Human PMNs); CXCL8 25 nM; mean ± SE, n = 4
Experimental: as §1, §2

CXCR1 [8] = target: T1, CXCR1; assay: Wash-resistant inhibition of CXCL8-mediated calcium flux after inhibitor washout, CXCR1 RBL cells; type: cell-based; conditions: RBL cells stably transfected with CXCR1; 30 minutes incubation at 37°C with 0.4, 2, 10 µM, then washout; time points up to 12 h
Experimental: (§3) SX-682 contains a boronic acid moiety that has the potential to form a transient covalent linkage with hydroxyl-bearing amino acid side chains in the binding site of its protein target.
(§4) In order to test this hypothesis, RBL cells (10^7 cells/mL) stably transfected with either CXCR1 or CXCR2 were (1) incubated with SX-682 at various concentrations for 30 minutes at 37°C, (2) washed and resuspended in assay buffer (RPMI/2% serum) at room temperature, and (3) assayed for CXCL8-mediated calcium response at time points up to 12 h after inhibitor washout. The concentrations of SX-682 tested were 0 (positive control), 0 (negative control), 0.4, 2, and 10 µM. At 30 minutes before each time point, a 56.25 µL aliquot of the cells were removed and loaded for 30 minutes at room temperature in the dark with FLIPR-3 reagent (262.5 µl per tube). Following FLIPR-3 incubation, cells were assayed for CXCL8 mediated intracellular calcium release as described in Pharmacology Example 1.

CXCR2 [9] = target: T2, CXCR2; assay: Wash-resistant inhibition of CXCL8-mediated calcium flux after inhibitor washout, CXCR2 RBL cells; type: cell-based; conditions: RBL cells stably transfected with CXCR2; 30 minutes incubation at 37°C with 0.4, 2, 10 µM, then washout; time points up to 12 h
Experimental: as §3, §4

[10] = 37°C, 2 mM NADPH, pH 7.4, first-order decay model
[11] = 5 µM, incubation at 37°C, LC-MS/MS detection

Row | Compound | t½ (Half-life) [1, 10] | t½ [2, 11] | fold reduction in plasma half-life ([2]; structural comparison with sulfur / F3CO-bearing cogeners) | activity on neutrophils in vivo (neutrophils [3]) | influx of neutrophils into the lungs (BALF) as compared to control rats treated with vehicle only (neutrophils [4]) | IC50 (CXCR1 [5]) | IC50 (CXCR2 [6]) | IC50 [7] | inhibition of CXCL8-mediated intracellular calcium flux sustained after washout (CXCR1 [8]) | inhibition of CXCL8-mediated intracellular calcium flux sustained after washout (CXCR2 [9]) | inhibition of neutrophil chemotaxis, comparison of the two inhibitors tested (neutrophils [4]; SX-682 vs SX-576, each 1 mg/kg intravenously, ozone exposed rats) | inhibition of neutrophil influx into the BALF sustained after a single dose (neutrophils [4]; single dose of 1 mg/kg intravenously, ozone exposed rats) | fold larger half life than SX-671 or SX-576 [1] | half-life ([1]; 37°C, 2 mM NADPH, pH 7.4, first-order decay model, read-out: t½ (Half-life)) | half-life at 5 µM ([2]; 5 µM, incubation at 37°C, LC-MS/MS detection, read-out: t½)
1 | O=C(Nc1ccc(F)cc1)c1ccc(SCc2ccccc2B(O)O)nc1 [SX-517] | 6.75 h | 1.88 h | 5 fold | both inhibitory and agonist activity on neutrophils were achieved |  |  |  |  |  |  |  |  |  |  | 
2 | O=C(Nc1ccc(F)cc1)c1ccc(SCc2cc(OC(F)(F)F)ccc2B(O)O)nc1 [SX-576, reference compound] | 0.833 h | 8.88 h |  | both inhibitory and agonist activity on neutrophils were achieved | significantly decreased the influx of neutrophils |  |  |  |  |  |  |  |  |  | 
3 | O=C(Nc1ccc(F)cc1)c1cnc(SCc2cc(OC(F)(F)F)ccc2B(O)O)nc1 [SX-682, 2-(2-Boronic acid-5-trifluoromethoxy-benzylsulfanyl)-pyrimidine-5-carboxylic acid (4-fluoro-phenyl)-amide] |  |  |  |  | significantly decreased the influx of neutrophils | 0.042 ± 0.003 µM | 0.02 ± 0.002 µM | 0.055 ± 0.006 µM | at least 12 hours | at least 12 hours | markedly more robust inhibition of neutrophil chemotaxis | 24 h | 6 fold | 5.42 h | 11.6 h

Reference: EP3027627B1, “2-[5-[N-(4-FLUOROPHENYL)CARBAMOYL]PYRIMIDIN-2-YLSULFANYLMETHYL]-4-(TRIFLUOROMETHOXY)PHENYL]BORONIC ACID” (Syntrix Biosystems Inc., priority 2013, dated 2015)
